Measurements from paper PMC8080530, “Glucocorticoid receptor Thr524 phosphorylation by MINK1 induces interactions with 14-3-3 protein regulators” (The Journal of Biological Chemistry, 2021).
Non-standard residues stand in square brackets, D forms with d. Residues, ends and D or L forms follow the SMILES beside them. pT = C[C@@H](OP(=O)(O)O)[C@H](N)C(=O)O; pS = N[C@@H](COP(=O)(O)O)C(=O)O

The molecules below were run against T1, 14-3-3ζ (Homo sapiens, UniProt P63104) (assay: FP assay with GR phosphorylated peptides and 14-3-3ζ). Conditions: read-out: PKd with 14-3-3ζ (converted).
T1 construct: Full-length expression and purification of 14-3-3; made in house; host or cells: E. coli BL21 (DE3)STAR
T1 sequence (P63104 1-245): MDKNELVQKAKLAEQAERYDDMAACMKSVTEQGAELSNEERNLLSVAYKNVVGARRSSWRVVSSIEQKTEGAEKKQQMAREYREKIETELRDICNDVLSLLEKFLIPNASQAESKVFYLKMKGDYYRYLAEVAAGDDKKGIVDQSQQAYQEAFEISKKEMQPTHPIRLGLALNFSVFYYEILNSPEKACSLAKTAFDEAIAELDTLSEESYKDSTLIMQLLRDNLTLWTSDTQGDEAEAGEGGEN
Assay type: binding
Procedure: After 30-min incubation at RT, the plates were read on a plate reader PHERAstar (BMG LABTECH GmbH) for FP signal using […] and standard excitation (485 nm) and emission (520 nm). Measurements were performed as triplicates. Binding data were fit to a standard Hill equation using the software Genedata Screener. The figures were made using the software GraphPad Prism 8. FP data were expressed as millipolarization (mP) units, and the dynamic range (ΔmP) was the difference of the signals from the bound peptide and free peptide. Errors are the standard error of the fit.

Structure (SMILES)	Kd [nM]
CC[C@H](C)[C@H](NC(=O)[C@@H](NC(=O)[C@@H](N)CCCCN)[C@@H](C)O)C(=O)N[C@H](C(=O)N[C@@H](C)C(=O)N[C@@H](C)C(=O)N[C@H](C(=O)N[C@@H](CC(C)C)C(=O)N1CCC[C@H]1C(=O)N[C@@H](CCC(N)=O)C(=O)N[C@@H](CC(C)C)C(=O)N[C@H](C(=O)N1CCC[C@H]1C(=O)NCC(=O)NCC(=O)NCC(=O)NCC(=O)NCC(=O)N[C@@H](CCCNC(=N)N)C(=O)N[C@@H](CO)C(=O)N[C@@H](Cc1ccc(O)cc1)C(=O)N[C@@H](CCCNC(=N)N)C(=O)N[C@@H](CCC(N)=O)C(=O)N[C@@H](CO)C(=O)N[C@@H](COP(=O)(O)O)C(=O)N[C@@H](C)C(=O)N[C@@H](CC(N)=O)C(=O)N[C@@H](CC(C)C)C(=O)N[C@@H](CC(C)C)C(=O)N[C@@H](CS)C(=O)N[C@@H](Cc1ccccc1)C(=O)O)[C@@H](C)O)[C@@H](C)OP(=O)(O)O)C(C)C [GR_P522A] (H-KTIVAA[pT]LPQLTPGGGGGRSYRQS[pS]ANLLCF-OH)	63.1
CC[C@H](C)[C@H](NC(=O)[C@@H](NC(=O)[C@@H](N)CCCCN)[C@@H](C)O)C(=O)N[C@H](C(=O)N1CCC[C@H]1C(=O)N[C@@H](C)C(=O)N[C@H](C(=O)N[C@@H](CC(C)C)C(=O)N[C@@H](C)C(=O)N[C@@H](CCC(N)=O)C(=O)N[C@@H](CC(C)C)C(=O)N[C@H](C(=O)N1CCC[C@H]1C(=O)NCC(=O)NCC(=O)NCC(=O)NCC(=O)NCC(=O)N[C@@H](CCCNC(=N)N)C(=O)N[C@@H](CO)C(=O)N[C@@H](Cc1ccc(O)cc1)C(=O)N[C@@H](CCCNC(=N)N)C(=O)N[C@@H](CCC(N)=O)C(=O)N[C@@H](CO)C(=O)N[C@@H](COP(=O)(O)O)C(=O)N[C@@H](C)C(=O)N[C@@H](CC(N)=O)C(=O)N[C@@H](CC(C)C)C(=O)N[C@@H](CC(C)C)C(=O)N[C@@H](CS)C(=O)N[C@@H](Cc1ccccc1)C(=O)O)[C@@H](C)O)[C@@H](C)OP(=O)(O)O)C(C)C [GR_P526A] (H-KTIVPA[pT]LAQLTPGGGGGRSYRQS[pS]ANLLCF-OH)	1260
CC[C@H](C)[C@H](NC(=O)[C@@H](NC(=O)[C@@H](N)CCCCN)[C@@H](C)O)C(=O)N[C@H](C(=O)N1CCC[C@H]1C(=O)N[C@@H](C)C(=O)N[C@H](C(=O)N[C@@H](CC(C)C)C(=O)N1CCC[C@H]1C(=O)N[C@@H](CCC(N)=O)C(=O)N[C@@H](CC(C)C)C(=O)N[C@H](C(=O)N[C@@H](C)C(=O)NCC(=O)NCC(=O)NCC(=O)NCC(=O)NCC(=O)N[C@@H](CCCNC(=N)N)C(=O)N[C@@H](CO)C(=O)N[C@@H](Cc1ccc(O)cc1)C(=O)N[C@@H](CCCNC(=N)N)C(=O)N[C@@H](CCC(N)=O)C(=O)N[C@@H](CO)C(=O)N[C@@H](COP(=O)(O)O)C(=O)N[C@@H](C)C(=O)N[C@@H](CC(N)=O)C(=O)N[C@@H](CC(C)C)C(=O)N[C@@H](CC(C)C)C(=O)N[C@@H](CS)C(=O)N[C@@H](Cc1ccccc1)C(=O)O)[C@@H](C)O)[C@@H](C)OP(=O)(O)O)C(C)C [GR_P530A] (H-KTIVPA[pT]LPQLTAGGGGGRSYRQS[pS]ANLLCF-OH)	31.6
CC[C@H](C)[C@H](NC(=O)[C@@H](NC(=O)[C@@H](N)CCCCN)[C@@H](C)O)C(=O)N[C@H](C(=O)N1CCC[C@H]1C(=O)N[C@@H](C)C(=O)N[C@H](C(=O)N[C@@H](CC(C)C)C(=O)N1CCC[C@H]1C(=O)N[C@@H](C)C(=O)N[C@@H](CC(C)C)C(=O)N[C@H](C(=O)N1CCC[C@H]1C(=O)NCC(=O)NCC(=O)NCC(=O)NCC(=O)NCC(=O)N[C@@H](CCCNC(=N)N)C(=O)N[C@@H](CO)C(=O)N[C@@H](Cc1ccc(O)cc1)C(=O)N[C@@H](CCCNC(=N)N)C(=O)N[C@@H](CCC(N)=O)C(=O)N[C@@H](CO)C(=O)N[C@@H](COP(=O)(O)O)C(=O)N[C@@H](C)C(=O)N[C@@H](CC(N)=O)C(=O)N[C@@H](CC(C)C)C(=O)N[C@@H](CC(C)C)C(=O)N[C@@H](CS)C(=O)N[C@@H](Cc1ccccc1)C(=O)O)[C@@H](C)O)[C@@H](C)OP(=O)(O)O)C(C)C [GR_Q527A] (H-KTIVPA[pT]LPALTPGGGGGRSYRQS[pS]ANLLCF-OH)	31.6
